# PMC9939292, “Cefoselis enhances breast cancer chemosensitivity by directly targeting GRP78/LRP5 signalling of cancer stem cells” (Clinical and Translational Medicine, 2023)
# Molecular target: T1, recombinant GRP78 protein (Homo sapiens, UniProt P11021)
# T1 construct: gene HSPA5; recombinant GRP78
# Assay: isothermal titration calorimetry; also SPR small molecule microarray
# Type: binding
# Text: isothermal titration calorimetry; also SPR small molecule microarray on recombinant GRP78 protein | measure the binding affinity of cefoselis with the recombinant GRP78 protein
# T1 sequence (P11021 19-654): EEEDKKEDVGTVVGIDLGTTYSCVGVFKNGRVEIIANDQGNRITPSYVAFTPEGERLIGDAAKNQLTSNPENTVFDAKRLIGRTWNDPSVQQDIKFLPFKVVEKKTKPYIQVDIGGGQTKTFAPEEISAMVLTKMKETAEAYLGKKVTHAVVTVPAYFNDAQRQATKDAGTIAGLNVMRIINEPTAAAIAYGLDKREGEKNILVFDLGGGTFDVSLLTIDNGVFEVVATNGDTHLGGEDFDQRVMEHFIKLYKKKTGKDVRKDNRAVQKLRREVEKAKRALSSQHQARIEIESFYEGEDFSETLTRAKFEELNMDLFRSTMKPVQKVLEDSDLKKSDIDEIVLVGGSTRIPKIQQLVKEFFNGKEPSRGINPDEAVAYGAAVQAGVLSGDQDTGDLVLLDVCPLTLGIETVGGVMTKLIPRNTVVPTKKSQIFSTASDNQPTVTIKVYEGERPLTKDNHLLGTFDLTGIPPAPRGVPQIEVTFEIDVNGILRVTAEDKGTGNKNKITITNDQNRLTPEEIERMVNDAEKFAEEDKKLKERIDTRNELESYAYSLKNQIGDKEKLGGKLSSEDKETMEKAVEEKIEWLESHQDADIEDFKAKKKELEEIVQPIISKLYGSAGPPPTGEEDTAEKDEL
structure (smiles),measurement,value
CO/N=C(\C(=O)N[C@@H]1C(=O)N2C(C(=O)[O-])=C(C[n+]3ccc(N)n3CCO)CS[C@H]12)c1csc(N)n1 [cefoselis],Kd,463 nM
